Measured values published in ChEMBL document CHEMBL1138130, “Synthesis and antibacterial activity of 3-O-acyl-6-O-carbamoyl erythromycin A derivatives” (2006).
≈ marks a conversion by molar mass, not a printed value.

Experiments:
Assay type in all cases: functional
[1] = tested on: Staphylococcus aureus; assay: Antibacterial activity against Staphylococcus aureus OC4172
[2] = tested on: Streptococcus pneumoniae; assay: Antibacterial activity against Streptococcus pneumoniae OC9132
[3] = tested on: Streptococcus pneumoniae; assay: Antibacterial activity against erm(B) ribosomal methylase gene containing Streptococcus pneumoniae OC4051
[4] = tested on: Streptococcus pneumoniae; assay: Antibacterial activity against Mef(A) efflux pump containing Streptococcus pneumoniae OC4438
[5] = tested on: Haemophilus influenzae; assay: Antibacterial activity against Haemophilus influenzae OC4882

SMILES	MIC [1] [µg/mL]	MIC [2] [µg/mL]	MIC [3] [µg/mL]	MIC [4] [µg/mL]	MIC [5] [µg/mL]
CC[C@H]1OC(=O)[C@H](C)[C@@H](OC(=O)N(C)Cc2cccnc2)[C@H](C)[C@@H](O[C@@H]2O[C@H](C)C[C@H](N(C)C)[C@H]2O)[C@](C)(OC(=O)NC/C=C/c2ccc(-c3ncccn3)cc2)C[C@@H](C)C(=O)[C@H](C)[C@H]2NC(=O)O[C@@]21C	0.25 (≈ 0.254 µM)	0.03 (≈ 0.0304 µM)	0.5 (≈ 0.507 µM)	0.06 (≈ 0.0608 µM)	4 (≈ 4.06 µM)
CC[C@H]1OC(=O)[C@H](C)[C@@H](OC(=O)C(C)C)[C@H](C)[C@@H](O[C@@H]2O[C@H](C)C[C@H](N(C)C)[C@H]2O)[C@](C)(OC(=O)NC/C=C/c2ccc(-c3ncccn3)cc2)C[C@@H](C)C(=O)[C@H](C)[C@H]2NC(=O)O[C@@]21C	0.5 (≈ 0.551 µM)	0.06 (≈ 0.0661 µM)	0.12 (≈ 0.132 µM)	0.12 (≈ 0.132 µM)	8 (≈ 8.81 µM)
CCC(=O)O[C@H]1[C@H](C)[C@@H](O[C@@H]2O[C@H](C)C[C@H](N(C)C)[C@H]2O)[C@](C)(OC(=O)NC/C=C/c2ccc(-c3ncccn3)cc2)C[C@@H](C)C(=O)[C@H](C)[C@H]2NC(=O)O[C@]2(C)[C@@H](CC)OC(=O)[C@@H]1C	0.5 (≈ 0.559 µM)	0.03 (≈ 0.0336 µM)	0.25 (≈ 0.28 µM)	0.12 (≈ 0.134 µM)	8 (≈ 8.95 µM)
CC[C@H]1OC(=O)[C@H](C)[C@@H](OC(=O)N2CCCC2)[C@H](C)[C@@H](O[C@@H]2O[C@H](C)C[C@H](N(C)C)[C@H]2O)[C@](C)(OC(=O)NC/C=C/c2ccc(-c3ncccn3)cc2)C[C@@H](C)C(=O)[C@H](C)[C@H]2NC(=O)O[C@@]21C	0.5 (≈ 0.535 µM)	0.06 (≈ 0.0642 µM)	0.25 (≈ 0.267 µM)	0.12 (≈ 0.128 µM)	16 (≈ 17.1 µM)
CC[C@H]1OC(=O)[C@H](C)[C@@H](OC(=O)Cc2cccnc2)[C@H](C)[C@@H](O[C@@H]2O[C@H](C)C[C@H](N(C)C)[C@H]2O)[C@](C)(OC(=O)NC/C=C/C=C/c2cccnc2)C[C@@H](C)C(=O)[C@H](C)[C@H]2NC(=O)O[C@@]21C	0.5 (≈ 0.552 µM)	0.03 (≈ 0.0331 µM)	0.12 (≈ 0.132 µM)	0.12 (≈ 0.132 µM)	2 (≈ 2.21 µM)
CC[C@H]1OC(=O)[C@H](C)[C@@H](OC(=O)Nc2ccc(F)cc2)[C@H](C)[C@@H](O[C@@H]2O[C@H](C)C[C@H](N(C)C)[C@H]2O)[C@](C)(OC(=O)NC/C=C/c2ccc(-c3ncccn3)cc2)C[C@@H](C)C(=O)[C@H](C)[C@H]2NC(=O)O[C@@]21C	1 (≈ 1.03 µM)	0.12 (≈ 0.123 µM)	2 (≈ 2.05 µM)	0.25 (≈ 0.256 µM)	16 (≈ 16.4 µM)
CC[C@H]1OC(=O)[C@H](C)[C@@H](OC(=O)N(CC)Cc2cccnc2)[C@H](C)[C@@H](O[C@@H]2O[C@H](C)C[C@H](N(C)C)[C@H]2O)[C@](C)(OC(=O)NC/C=C/c2ccc(-c3ncccn3)cc2)C[C@@H](C)C(=O)[C@H](C)[C@H]2NC(=O)O[C@@]21C	0.5 (≈ 0.5 µM)	0.06 (≈ 0.06 µM)	0.25 (≈ 0.25 µM)	0.12 (≈ 0.12 µM)	16 (≈ 16 µM)
CC[C@H]1OC(=O)[C@H](C)[C@@H](OC(=O)C(C)C)[C@H](C)[C@@H](O[C@@H]2O[C@H](C)C[C@H](N(C)C)[C@H]2O)[C@](C)(OC(=O)NC/C=C/c2ccc(-c3cccnn3)cc2)C[C@@H](C)C(=O)[C@H](C)[C@H]2NC(=O)O[C@@]21C	0.5 (≈ 0.551 µM)	0.06 (≈ 0.0661 µM)	0.12 (≈ 0.132 µM)	0.06 (≈ 0.0661 µM)	2 (≈ 2.2 µM)
CC[C@H]1OC(=O)[C@H](C)[C@@H](O[C@H]2C[C@@](C)(OC)[C@@H](O)[C@H](C)O2)[C@H](C)[C@@H](O[C@@H]2O[C@H](C)C[C@H](N(C)C)[C@H]2O)[C@](C)(O)C[C@@H](C)C(=O)[C@H](C)[C@@H](O)[C@]1(C)O [ERYTHROMYCIN]	0.5 (≈ 0.681 µM)	0.06 (≈ 0.0818 µM)	> 16	4 (≈ 5.45 µM)	8 (≈ 10.9 µM)
CC[C@H]1OC(=O)[C@H](C)[C@@H](OC(=O)Cc2cccnc2)[C@H](C)[C@@H](O[C@@H]2O[C@H](C)C[C@H](N(C)C)[C@H]2O)[C@](C)(OC(=O)NC/C=C/c2cnc(C3CC3)nc2)C[C@@H](C)C(=O)[C@H](C)[C@H]2NC(=O)O[C@@]21C	0.5 (≈ 0.543 µM)	0.06 (≈ 0.0651 µM)	0.25 (≈ 0.271 µM)	0.25 (≈ 0.271 µM)	2 (≈ 2.17 µM)
CC[C@H]1OC(=O)[C@H](C)[C@@H](OC(C)=O)[C@H](C)[C@@H](O[C@@H]2O[C@H](C)C[C@H](N(C)C)[C@H]2O)[C@](C)(OC(=O)NC/C=C/c2ccc(-c3ncccn3)cc2)C[C@@H](C)C(=O)[C@H](C)[C@H]2NC(=O)O[C@@]21C	1 (≈ 1.14 µM)	0.03 (≈ 0.0341 µM)	0.5 (≈ 0.568 µM)	0.12 (≈ 0.136 µM)	16 (≈ 18.2 µM)
CC[C@H]1OC(=O)[C@H](C)[C@@H](OC(=O)Cc2cccnc2)[C@H](C)[C@@H](O[C@@H]2O[C@H](C)C[C@H](N(C)C)[C@H]2O)[C@](C)(OC(=O)NC/C=C/c2cnc3ccccc3c2)C[C@@H](C)C(=O)[C@H](C)[C@H]2NC(=O)O[C@@]21C	0.5 (≈ 0.538 µM)	0.06 (≈ 0.0645 µM)	0.12 (≈ 0.129 µM)	0.06 (≈ 0.0645 µM)	4 (≈ 4.3 µM)
CC[C@H]1OC(=O)[C@H](C)[C@@H](OC(=O)N(CC)CC)[C@H](C)[C@@H](O[C@@H]2O[C@H](C)C[C@H](N(C)C)[C@H]2O)[C@](C)(OC(=O)NC/C=C/c2ccc(-n3cccn3)cc2)C[C@@H](C)C(=O)[C@H](C)[C@H]2NC(=O)O[C@@]21C	1 (≈ 1.08 µM)	0.12 (≈ 0.13 µM)	0.5 (≈ 0.54 µM)	0.12 (≈ 0.13 µM)	4 (≈ 4.32 µM)
CC[C@H]1OC(=O)[C@H](C)[C@@H](OC(=O)Cc2cccnc2)[C@H](C)[C@@H](O[C@@H]2O[C@H](C)C[C@H](N(C)C)[C@H]2O)[C@](C)(OC(=O)NC/C=C/c2ccc(-c3ncccn3)cc2)C[C@@H](C)C(=O)[C@H](C)[C@H]2NC(=O)O[C@@]21C	0.12 (≈ 0.125 µM)	0.03 (≈ 0.0313 µM)	0.12 (≈ 0.125 µM)	0.06 (≈ 0.0627 µM)	4 (≈ 4.18 µM)
CC[C@H]1OC(=O)[C@H](C)[C@@H](OC(=O)CC2CC2)[C@H](C)[C@@H](O[C@@H]2O[C@H](C)C[C@H](N(C)C)[C@H]2O)[C@](C)(OC(=O)NC/C=C/c2ccc(-c3ncccn3)cc2)C[C@@H](C)C(=O)[C@H](C)[C@H]2NC(=O)O[C@@]21C	1 (≈ 1.09 µM)	0.06 (≈ 0.0652 µM)	0.12 (≈ 0.13 µM)	0.12 (≈ 0.13 µM)	16 (≈ 17.4 µM)
CC[C@H]1OC(=O)[C@H](C)[C@@H](OC(=O)Cc2ccccn2)[C@H](C)[C@@H](O[C@@H]2O[C@H](C)C[C@H](N(C)C)[C@H]2O)[C@](C)(OC(=O)NC/C=C/c2ccc(-c3ncccn3)cc2)C[C@@H](C)C(=O)[C@H](C)[C@H]2NC(=O)O[C@@]21C	0.25 (≈ 0.261 µM)	0.03 (≈ 0.0313 µM)	0.12 (≈ 0.125 µM)	0.12 (≈ 0.125 µM)	4 (≈ 4.18 µM)
CC[C@H]1OC(=O)[C@H](C)[C@@H](OC(=O)C(C)C)[C@H](C)[C@@H](O[C@@H]2O[C@H](C)C[C@H](N(C)C)[C@H]2O)[C@](C)(OC(=O)NC/C=C/C=C/c2cccnc2)C[C@@H](C)C(=O)[C@H](C)[C@H]2NC(=O)O[C@@]21C	0.5 (≈ 0.583 µM)	0.06 (≈ 0.07 µM)	0.25 (≈ 0.292 µM)	0.12 (≈ 0.14 µM)	4 (≈ 4.67 µM)
CC[C@H]1OC(=O)[C@H](C)[C@@H](OC(=O)N(CC)CC)[C@H](C)[C@@H](O[C@@H]2O[C@H](C)C[C@H](N(C)C)[C@H]2O)[C@](C)(OC(=O)NC/C=C/c2ccc(-c3ncccn3)cc2)C[C@@H](C)C(=O)[C@H](C)[C@H]2NC(=O)O[C@@]21C	0.5 (≈ 0.534 µM)	0.06 (≈ 0.064 µM)	0.12 (≈ 0.128 µM)	0.06 (≈ 0.064 µM)	8 (≈ 8.54 µM)
CC[C@H]1OC(=O)[C@H](C)[C@@H](OC(=O)Nc2ccc(OC)cc2)[C@H](C)[C@@H](O[C@@H]2O[C@H](C)C[C@H](N(C)C)[C@H]2O)[C@](C)(OC(=O)NC/C=C/c2ccc(-c3ncccn3)cc2)C[C@@H](C)C(=O)[C@H](C)[C@H]2NC(=O)O[C@@]21C	1 (≈ 1.01 µM)	0.12 (≈ 0.122 µM)	4 (≈ 4.05 µM)	0.25 (≈ 0.253 µM)	16 (≈ 16.2 µM)
CC[C@H]1OC(=O)[C@H](C)[C@@H](OC(=O)N(C)C)[C@H](C)[C@@H](O[C@@H]2O[C@H](C)C[C@H](N(C)C)[C@H]2O)[C@](C)(OC(=O)NC/C=C/c2ccc(-c3ncccn3)cc2)C[C@@H](C)C(=O)[C@H](C)[C@H]2NC(=O)O[C@@]21C	0.25 (≈ 0.275 µM)	0.03 (≈ 0.033 µM)	0.25 (≈ 0.275 µM)	0.06 (≈ 0.066 µM)	8 (≈ 8.8 µM)
CC[C@H]1OC(=O)[C@H](C)C(=O)[C@H](C)[C@@H](O[C@@H]2O[C@H](C)C[C@H](N(C)C)[C@H]2O)[C@](C)(OC(=O)NC/C=C/c2ccc(-c3ncccn3)cc2)C[C@@H](C)C(=O)[C@H](C)[C@H]2NC(=O)O[C@@]21C	0.12 (≈ 0.144 µM)	0.03 (≈ 0.0359 µM)	0.06 (≈ 0.0718 µM)	0.25 (≈ 0.299 µM)	4 (≈ 4.78 µM)
CC[C@H]1OC(=O)[C@H](C)[C@@H](OC(=O)N(CC)CC)[C@H](C)[C@@H](O[C@@H]2O[C@H](C)C[C@H](N(C)C)[C@H]2O)[C@](C)(OC(=O)NC/C=C/c2cnc3ccccc3c2)C[C@@H](C)C(=O)[C@H](C)[C@H]2NC(=O)O[C@@]21C	0.5 (≈ 0.549 µM)	0.06 (≈ 0.0659 µM)	0.12 (≈ 0.132 µM)	0.06 (≈ 0.0659 µM)	4 (≈ 4.4 µM)
CC[C@H]1OC(=O)[C@H](C)[C@@H](OC(=O)CCc2cccnc2)[C@H](C)[C@@H](O[C@@H]2O[C@H](C)C[C@H](N(C)C)[C@H]2O)[C@](C)(OC(=O)NC/C=C/c2ccc(-c3ncccn3)cc2)C[C@@H](C)C(=O)[C@H](C)[C@H]2NC(=O)O[C@@]21C	0.25 (≈ 0.257 µM)	0.03 (≈ 0.0309 µM)	2 (≈ 2.06 µM)	0.06 (≈ 0.0618 µM)	8 (≈ 8.24 µM)
CC[C@H]1OC(=O)[C@H](C)[C@@H](OC(=O)c2cccnc2)[C@H](C)[C@@H](O[C@@H]2O[C@H](C)C[C@H](N(C)C)[C@H]2O)[C@](C)(OC(=O)NC/C=C/c2ccc(-c3ncccn3)cc2)C[C@@H](C)C(=O)[C@H](C)[C@H]2NC(=O)O[C@@]21C	0.5 (≈ 0.53 µM)	0.06 (≈ 0.0636 µM)	4 (≈ 4.24 µM)	0.25 (≈ 0.265 µM)	16 (≈ 17 µM)
CC[C@H]1OC(=O)[C@H](C)[C@@H](OC(=O)C(C)C)[C@H](C)[C@@H](O[C@@H]2O[C@H](C)C[C@H](N(C)C)[C@H]2O)[C@](C)(OC(=O)NC/C=C/c2cnc3ccccc3c2)C[C@@H](C)C(=O)[C@H](C)[C@H]2NC(=O)O[C@@]21C	0.25 (≈ 0.284 µM)	0.03 (≈ 0.034 µM)	0.06 (≈ 0.0681 µM)	0.03 (≈ 0.034 µM)	4 (≈ 4.54 µM)
